Experimental data taken from patent publication US20140045809A1, “CORROLES FOR NEUROPROTECTION AND NEURORESCUE” (priority 2008, published 2014).

Assays:
[1] = system: INS-1E cells; assay: Protection of INS-1E beta cells against H2O2 toxicity; type: cell-based, rat; conditions: 20 and 50 μM, 30 min before increasing H2O2 concentrations, 24 h
Description: Two insulin-secreting beta cell lines, rat insulinoma (INS-1E) and RIN-m cells, were used to examine the protective effect of corrole 1C-Fe. The cells were cultured at 37° C., in a humid 5% CO2, 95% air environment in regular RPMI-1640 medium (Invitrogen) supplemented with 5% fetal calf serum (FCS).
After 2 days of culture, INS-1E cells (5×10^4 cells/well in 96-well plates) were treated with corrole 1C-Fe (20 and 50 μM) added 30 minutes prior to treatment with increasing concentrations of H2O2 and then further incubated for 24 h.

[2] = system: clonal beta cell lines; assay: Toxicity of corrole alone (without H2O2) on clonal beta cell lines; type: cell-based; conditions: without H2O2, concentrations up to 50 μM
[3] = system: INS-1E cells; assay: Protection of INS-1E cells against SIN-1 toxicity (MTT); type: cell-based, rat; conditions: 10 μM, 30 min before SIN-1 (500 or 600 μM), 24 h
Description: INS-1E cells or RIN-m cells were cultured in RPMI with low serum content (2% FCS), placed in microtiter plates (96 wells) at a density of 2.5×10^4 cells/well and allowed to attach for 24 h before treatment. Corroles 1C-Fe and 5C-Fe (10 μM) were added 30 min prior to insult with the nitric oxide donor SIN-1 (500 or 600 μM) for a subsequent 24 h period. Cell viability was evaluated by a colorimetric assay for mitochondrial function using 3-(4,5-dimethylthiazol-2-yl)-2,5-diphenyltetrazolium bromide (MTT test), and expressed as percentage of untreated control. Values higher than 100% reflect increased mitochondrial activity induced by the drug. The results represent the mean±SEM of three independent experiments performed under the same conditions.

[4] = Peroxynitrite decomposition rates by manganese corroles (Example 2); type: biochemical; conditions: 385 μM peroxynitrite, pH 7.4, 25° C., absorbance at 302 nm; Table 2
Description: The investigations were performed by examining the decay of 385 μM peroxynitrite at pH 7.4 and 25° C. in the presence and absence of various amounts of Mn corrole catalysts 2C-Mn, 2C′-Mn, 2C″-Mn, 3C-Mn and 4C-Mn. The differences between 2C-Mn, 2C′-Mn, and 2C″-Mn is in the identity of the 10-aryl group, which is C6F5, para-anisyl, and phenyl, respectively. The results (one example using 4C-Mn is shown in FIG. 1) were obtained by monitoring changes in absorbance at 302 nm, the λmax of peroxynitrite. The catalytic performances of five of the above compounds were tested; and the thus elucidated kcat values are presented in Table 2. Importantly, in sharp contrast with the corroles, none of the structurally similar manganese (III) porphyrin complexes affected the decomposition of peroxynitrite by any extent (not shown).

[5] = molecular target: albumin (Homo sapiens, UniProt P02768); assay: Binding of corrole complexes to albumin; conditions: preliminary experiments
Chain of albumin (P02768 25-609): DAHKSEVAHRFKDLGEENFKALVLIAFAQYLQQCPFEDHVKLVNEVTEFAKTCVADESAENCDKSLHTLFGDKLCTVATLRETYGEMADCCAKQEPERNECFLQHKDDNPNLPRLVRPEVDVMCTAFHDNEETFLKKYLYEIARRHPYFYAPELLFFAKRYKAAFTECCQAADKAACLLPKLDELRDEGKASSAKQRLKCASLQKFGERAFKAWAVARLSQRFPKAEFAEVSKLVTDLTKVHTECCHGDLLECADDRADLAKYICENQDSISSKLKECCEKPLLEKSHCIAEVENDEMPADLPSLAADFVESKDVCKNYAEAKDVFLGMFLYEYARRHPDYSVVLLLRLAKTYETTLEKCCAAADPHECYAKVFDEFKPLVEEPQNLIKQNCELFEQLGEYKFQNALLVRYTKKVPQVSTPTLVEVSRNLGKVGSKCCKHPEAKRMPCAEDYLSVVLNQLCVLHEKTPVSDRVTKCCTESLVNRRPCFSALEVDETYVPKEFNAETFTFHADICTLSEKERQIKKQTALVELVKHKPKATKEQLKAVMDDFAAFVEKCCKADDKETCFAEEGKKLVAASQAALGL
Description: Issues regarding biodistribution, transport mechanisms, accumulation in specific organs, and the eventual elimination of administered compounds are among the prime concerns when it comes to real life utilization of potential drugs. This can be addressed by several and quite different means, including in vitro, in vivo and ex-vivo examinations. One way to predict distribution is via examination of the binding of the corroles to circulating proteins that might act as transporters, similar to experiment performed previously by the inventors with metal complexes of corrole 1C (Scheme 1), which spontaneously form tightly bound non-covalent bioconjugates with HDL (Haber et al., 2007), albumin (Mahammed et al., 2004), and transferrin (Haber and Gross. 2007) (listed in increasing order of affinity), as well as with semi-synthetic proteins (Agadjanian et al., 2006). […] A more direct approach relies on the strong fluorescence of corroles that are not chelated by transition metals (no metal such as in corroles 1C and 2C, or using corrole Ga/Al complexes such as 1C-Ga). This feature is used for testing cell entry via confocal microscopy (Agadjanian et al., 2006), without the need of attaching a fluorescent tag. Furthermore, it may even be used for whole animal imaging purposes, as shown in Example 4 hereinabove. […]

[6] = system: SH-SY5Y cells; type: cell-based; conditions: up to 50 μM; data not shown

Compound	protective effect against H2O2 toxicity [1]	toxicity when given alone [2]	protective effect against SIN-1 induced toxicity (MTT) [3]	kcat, peroxynitrite decomposition rate [4] [M⁻¹ s⁻¹]	binding to albumin [5]	preventing H2O2-mediated cytotoxicity [6]
O=S(=O)(O)c1cc2[n]3c1C(c1c(F)c(F)c(F)c(F)c1F)=C1C=CC4=[N+]1[Fe-]31[n]3c(cc(S(=O)(=O)O)c3-2)C(c2c(F)c(F)c(F)c(F)c2F)=c2ccc([n]21)=C4c1c(F)c(F)c(F)c(F)c1F (stereo not drawn) [1C-Fe, 2,17-bis(sulfonato)-5,10,15-tris(pentafluorophenyl)-corrolato iron(III)]	significant protective effect	shows no toxicity	marked protective effect			
C[n+]1ccc(C2=C3C=CC4=[N+]3[Mn-]35[n]6c2ccc6-c2ccc([n]23)C(c2cc[n+](C)cc2)=c2ccc([n]25)=C4c2c(F)c(F)c(F)c(F)c2F)cc1.[I-].[I-] (stereo not drawn) [2C-Mn, 5,15-bis(4-N-methyl-pyridilium)-10-pentafluorophenyl-corrolato manganese(III) diiodide salt]				150000	do not bind to albumin	not effective
